From patent US20230382863A1, “MEK INHIBITORS AND USES THEREOF” (Ikena Oncology, Inc., priority 2022, published 2023)

Experiments:
[1] = system: Phosphorylation of ERK1/2 in AsPC1 cells; assay: 4 hour pERK1/2 HTRF Assay; type: cell-based; details: Homo sapiens, ASPC1, read-out: pERK AsPC-1 HTRF (4 hour): Average IC50 (nM); AsPC-1, 4 hour
Protocol: AsPC1 cells were seeded at 20,000 cells/well overnight in 96-well plates, then treated with a 12-point dose response of compounds (Starting dose of 3000 nM and 3-fold dilution) for 4 hours. AsPC1 cells are a K-Ras mutant cell line. Phosphorylation of ERK1/2 on residues Thr202 and Tyr204 were detected using a Homogenous Time-Resolved Fluorescence (HTRF) assay (Cisbio Cat #64ERKPEG). Briefly, ERK phosphorylation was detected using a sandwich assay format using two phospho-ERK specific antibodies, one labelled with EU^3+-Cryptate (donor) and the second with d2 (acceptor). The Fluorescence Resonance Energy Transfer (FRET) towards the d2 acceptor was detected at a wavelength of 665 nm. ERK1/2 phosphorylation levels were normalized to total ERK1/2 protein levels in each well. IC50 values were determined by fitting a variable slope, four parameters curve to the compound concentration to normalized Phospho-ERK1/2 relationship.

[2] = Cassette pharmacokinetics studies in mice; type: in vivo; details: male, Balb/c, plasma; Mouse, PO, 5 mg/kg
Protocol: Pharmacokinetics studies were conducted using cassette dosing protocols, with test compounds administered per mouse. Treatment groups were 3 mice (˜6-8 weeks old, ˜20-30 g Balb/c male mice) per route of administration. Compounds were formulated in 5% DMSO and 95% PEG400 with final concentrations of 0.5 mg/mL for IV and PO dosing. Compounds were dosed at 2 mg/kg for IV dosing and 5 mg/kg for PO dosing. Blood samples were withdrawn at 0.083, 0.25, 0.5, 1.0, 2.0, 4.0, 6.0, 8.0, and 24 hours following IV dosing, and 0.25, 0.5, 1.0, 2.0, 4.0, 6.0, 8.0, and 24 hours following PO dosing. Blood samples were centrifuged at 4,000 g for 5 minutes at 4° C. to obtain plasma samples. Plasma samples were diluted with acetonitrile containing internal standard, vortexed for 30 seconds, then centrifuged at 4,000 rpm for 15 minutes at 4° C. The supernatant was diluted with water, and compound concentration was determined by HPLC/MS/MS compared to calibration standards of 0.5-1,000 ng/mL.
Where route is listed as “IV*”, the compound was dosed IV at 1 mg/kg.

[3] = target: uMEK/BRAF (Homo sapiens (Human), UniProt Q02750); assay: MEK-RAF Binding Assay (uMEK/BRAF HTRF)
[4] = target: MEK1-CRAF complex (Homo sapiens (Human), UniProt Q02750); assay: Stabilization of MEK1-CRAF complex assay (AlphaLISA); type: binding
Protocol: MEK1 was diluted to 4 nM, and nickel chelate donor beads and glutathione acceptor beads were diluted to 80 μg/mL. CRAF was diluted to a top concentration of 160 nM, which was subsequently diluted to 80, 40, 20, 10, 5, 2.5, 1.25, and 0.625 nM through 1:2 serial dilution.
Exemplary MEK inhibitor compounds (0, 0.01, 0.1, or 1 μM) were added to a 384-AlphaPlate (PerkinElmer, 6008350) by a digital liquid dispenser (Tecan D300e) based on a total volume of 20 μL reaction mixture.
5 μL 4×MEK1 stock solution was added to wells A1-P20 by multichannel pipettes. The plate was sealed with clear olefin sealing tape (Thermo Scientific, 232701), centrifuged at 1000 rpm for 1 minute, and incubated at room temperature for 30 minutes.
5 μL 4×CRAF stock solution at different concentrations or 5 μL or 10 μL AlphaLISA buffer was added by multichannel pipettes. The plate was sealed, centrifuged at 1000 rpm for 1 minute, and incubated at room temperature for 60 minutes.
5 μL 4×glutathione acceptor beads were first added to all wells by multichannel pipettes. The ambient light was subsequently adjusted to <100 lux (light meter) before adding 5 μL 4×nickel chelate donor beads to the same wells. From this step on, the plate was covered with a black plate cover, centrifuged at 1000 rpm for 1 minute, and incubated at room temperature for 60 minutes.
Data were collected on a PHERAStar FSX (BMG LABTECH) using the AlphaLISA module (excitation: 680 nm, emission: 615 nm), with a gain of 3600. The excitation time was 0.30 seconds, and data collection started after a 0.04-second delay for a total integration time of 0.60 seconds.
The individual AlphaLISA counts of wells with exemplary MEK inhibitor compound were divided by the average AlphaLISA counts of wells without compound to obtain AlphaLISA signal/background ratio (S/B). The dissociation constant (KD) of MEK1-CRAF was calculated using nonlinear regression curve fit in GraphPad PRISM® 9.0 software.

[5] = Pharmacokinetics in rat; type: in vivo; details: plasma, IV, 1 mg/kg; for Vd: read-out: Vdss
[6] = system: cancer cell lines; assay: In vitro MEK inhibitor drug combinations (Cell Titer Glo, Loewe synergy); type: cell-based; details: combination with I-2, 5 days
Protocol: Cell viability was determined by Cell Titer Glo assay. […] A normalized Loewe sum of synergy score of >10 was considered synergistic, <10, but >−10 additive, and <−10 antagonistic.

[7] = system: OCI-AML-3 xenograft (NRAS Q61L); assay: In vivo efficacy, OCI-AML-3 xenograft model; design: species or system mouse; details: OCI-AML-3 model, 100 mg/kg QD, Day 15
Protocol: (§1) The antitumor activity of exemplary MEK inhibitor compounds is evaluated in vivo using human cell line derived xenografts (CDX) grown in immunodeficient mice. For these studies, AsPC1 (pancreatic cell line with KRAS G12D mutation), NCI-H2122 (lung cell line with KRAS G12C mutation), and 5637 (bladder cell line with CRAF amplification) models are used. In addition, HCT-116 (colorectal cell line with KRAS G13D mutation), SKM-1 (AML cell line with KRAS K117N mutation), and OCI-AML-3 (AML cell line with NRAS Q61L mutation) models are used. The tumor cell lines (AsPC-1, NCI-H2122, 5637, and HCT-116 cells) are maintained in vitro as monolayer culture in medium at 37° C. in an atmosphere of 5% CO2 in air. The tumor cell lines (SKM-1 and OCI-AML-3 cells) are maintained in vitro as a suspension in medium at 37° C. in an atmosphere of 5% CO2 in air. The tumor cells are routinely sub-cultured before confluence by trypsin-EDTA treatment, not to exceed 4-5 passages. The cells growing in an exponential growth phase are harvested for tumor inoculation. AsPC1, NCI-H2122, and OCI-AML-3 tumors are implanted into Balb/c nude mice. HCT-116 tumors are implanted into Nu/Nu mice. 5637 and SKM-1 tumors are implanted into NOG mice. Each mouse is inoculated subcutaneously on the right flank with tumor cells in a 1:1 mixture with matrigel. Tumors are allowed to grow to approximately 150-200 mm^3. At this time, mice are assigned to groups such that the mean tumor volume is the same for each treatment group. The MEK inhibitor compound treatments are administrated to the tumor-bearing mice via oral gavage. Throughout the study, mouse body weight and tumor volume are recorded. The measurement of tumor size is conducted twice weekly with a caliper and recorded. The tumor volume (mm^3) is estimated using the formula: TV=a×b^2/2, where “a” and “b” are long and short diameters of a tumor, respectively.

[8] = system: SKM-1 xenograft (KRAS K117N); assay: In vivo efficacy, SKM-1 xenograft model; design: species or system mouse; details: SKM-1 model, 100 mg/kg QD, Day 22
Protocol: as §1

[9] = AsPC-1, HPAF, MiaPACA2, NCI-H1373, NCI-H2122, PANC03276

Chain of MEK1-CRAF complex (Q02750 whole entry, looked up): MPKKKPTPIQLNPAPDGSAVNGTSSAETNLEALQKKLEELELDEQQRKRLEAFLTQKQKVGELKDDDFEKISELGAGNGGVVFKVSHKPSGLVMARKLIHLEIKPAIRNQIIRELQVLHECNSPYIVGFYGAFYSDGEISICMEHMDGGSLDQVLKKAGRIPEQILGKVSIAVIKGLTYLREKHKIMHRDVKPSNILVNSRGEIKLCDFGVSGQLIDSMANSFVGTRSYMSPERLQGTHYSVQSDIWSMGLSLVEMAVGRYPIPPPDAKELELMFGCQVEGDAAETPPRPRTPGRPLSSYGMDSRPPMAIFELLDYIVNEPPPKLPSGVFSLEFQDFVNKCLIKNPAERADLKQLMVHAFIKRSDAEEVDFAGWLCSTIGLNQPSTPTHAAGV
Chain of MEK1-CRAF complex (P04049 whole entry partner, looked up): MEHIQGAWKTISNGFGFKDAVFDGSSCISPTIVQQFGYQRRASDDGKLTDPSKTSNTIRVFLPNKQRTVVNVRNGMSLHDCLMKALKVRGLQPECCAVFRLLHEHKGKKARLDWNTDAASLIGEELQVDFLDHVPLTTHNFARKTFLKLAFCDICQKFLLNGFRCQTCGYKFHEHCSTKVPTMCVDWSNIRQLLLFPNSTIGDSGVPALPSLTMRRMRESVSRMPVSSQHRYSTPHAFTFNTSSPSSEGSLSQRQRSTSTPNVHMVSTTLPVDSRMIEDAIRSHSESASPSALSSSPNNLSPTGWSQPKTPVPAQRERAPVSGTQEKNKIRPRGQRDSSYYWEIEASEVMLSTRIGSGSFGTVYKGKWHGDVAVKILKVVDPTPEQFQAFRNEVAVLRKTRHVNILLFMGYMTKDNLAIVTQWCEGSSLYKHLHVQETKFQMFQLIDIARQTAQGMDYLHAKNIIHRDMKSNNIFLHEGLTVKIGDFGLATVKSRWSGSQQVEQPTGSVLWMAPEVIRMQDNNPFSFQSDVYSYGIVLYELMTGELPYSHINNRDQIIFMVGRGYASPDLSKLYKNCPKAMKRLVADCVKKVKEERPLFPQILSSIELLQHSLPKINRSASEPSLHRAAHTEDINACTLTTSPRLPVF
Chain of uMEK/BRAF (Q02750 whole entry): as the sequence (Q02750 whole entry, looked up) above

| SMILES | IC50 [1] [nM] | AUC(0-inf) [2] [ng·h/mL] | AUC(0-t) [2] [ng·h/mL] | Cmax [2] [ng/mL] | Tmax [2] [h] | half-life [2] [h] | IC50 [3] [nM] | KD Ratio (mean), compound to DMSO ([4]; compound 0.01 μM) | KD Ratio (mean), compound to DMSO ([4]; compound 0.1 μM) | KD Ratio (mean), compound to DMSO ([4]; compound 1 μM) | Loewe Synergy Score > 10 [6, 9] | other results |
| --- | --- | --- | --- | --- | --- | --- | --- | --- | --- | --- | --- | --- |
| COCCNS(=O)(=O)Nc1cccc(Oc2c(C(=O)NC3CC3)c(Nc3ccc(I)cc3F)n(C)c(=O)c2C)c1Cl [Compound I-55] | < 100 | 1090 | 1090 | 801 | 0.4 | 1.58 | < 100 | 0.76 | 0.58 | 0.51 | – | – |
| CCNS(=O)(=O)Nc1cccc(Oc2c(C(=O)NC3CC3)c(Nc3ccc(I)cc3F)n(C)c(=O)c2C)c1Cl [Compound I-43] | < 100 | 803 | 763 | 488 | 0.3 | 3.92 | < 100 | 0.69 | 0.52 | 0.51 | – | – |
| Cc1c(Oc2cccc(NS(=O)(=O)NCC(F)(F)F)c2Cl)c(C(=O)NC2CC2)c(Nc2ccc(I)cc2F)n(C)c1=O [Compound I-46] | < 100 | 3800 | 3770 | 1430 | 0.6 | 2.8 | < 100 | – | – | – | – | AUC(0-inf) [5]: 1590 ng·h/mL; AUC(0-t) [5]: 1550 ng·h/mL; clearance [5]: 10.5 mL/min/kg; half-life [5]: 1.86 h; Vd [5]: 1 L/kg |
| Cc1ccc(NC(=O)c2ccnc(C(F)(F)F)c2)cc1-c1cc(OCCO)nc(N2CCOCC2)c1 [LXH254] | – | – | – | – | – | – | – | – | – | – | 6/6 cell lines | – |
| CNS(=O)(=O)Nc1cccc(Oc2c(C(=O)NC3CC3)c(Nc3ccc(I)cc3F)n(C)c(=O)c2C)c1OC(F)(F)F [Compound I-40] | < 100 | 2940 | 2750 | 783 | 0.8 | 1.82 | – | 0.87 | 0.62 | 0.47 | – | – |
| Cc1c(Oc2cccc(NS(=O)(=O)NC3CC3)c2Cl)c(C(=O)NC2CC2)c(Nc2ccc(I)cc2F)n(C)c1=O [Compound I-42] | < 100 | 511 | 506 | 418 | 0.4 | 1.11 | < 100 | 0.78 | 0.57 | 0.57 | – | AUC(0-inf) [5]: 217 ng·h/mL; AUC(0-t) [5]: 205 ng·h/mL; clearance [5]: 76.8 mL/min/kg; half-life [5]: 2.09 h; Vd [5]: 9.9 L/kg |
| C[C@H](Nc1ccc2c(c1)OCCn1cc(N3C(=O)OC[C@H]3C(F)F)nc1-2)C(N)=O [Inavolisib] | – | – | – | – | – | – | – | – | – | – | 5/6 cell lines | – |
| CO[C@H]1C[C@@H]2CC[C@@H](C)[C@@](O)(O2)C(=O)C(=O)N2CCCC[C@H]2C(=O)O[C@H]([C@H](C)C[C@@H]2CC[C@@H](OCCO)[C@H](OC)C2)CC(=O)[C@H](C)/C=C(\C)[C@@H](O)[C@@H](OC)C(=O)[C@H](C)C[C@H](C)/C=C/C=C/C=C/1C [Everolimus] | – | – | – | – | – | – | – | – | – | – | 5/6 cell lines | – |
| O=C1CCc2c(Oc3ccc4c(c3)[C@@H]3[C@H](O4)[C@H]3c3nc4ccc(C(F)(F)F)cc4[nH]3)ccnc2N1 [Lifirafenib] | – | – | – | – | – | – | – | – | – | – | – | Loewe Synergy Score > 10 ([6]; NCI-H358, NCI-H1373, NCI-H2122): 3/3 cell lines |
| Cc1nc(N2CCC3(CC2)CO[C@@H](C)[C@H]3N)c(CO)nc1-c1cccc(Cl)c1Cl [RMC-4550] | – | – | – | – | – | – | – | – | – | – | 3/6 cell lines | – |
| CNS(=O)(=O)Nc1cccc(Oc2c(C(=O)NCC(F)(F)F)c(Nc3ccc(I)cc3F)n(C)c(=O)c2C)c1Cl [Compound I-45] | < 100 | – | – | – | – | – | < 100 | 0.62 | 0.42 | 0.38 | – | – |
| CC1(C)CCC(CN2CCN(c3ccc(C(=O)NS(=O)(=O)c4ccc(NCC5CCOCC5)c([N+](=O)[O-])c4)c(Oc4cnc5[nH]ccc5c4)c3)CC2)=C(c2ccc(Cl)cc2)C1 [venetoclax, reference compound] | – | – | – | – | – | – | – | – | – | – | – | percent TGI [7]: 13%; weight gain [7]: 8.3%; percent TGI [8]: 46.6%; weight gain [8]: 7.5% |
| C=CC(=O)N1CCN(c2nc(=O)n(-c3c(C)ccnc3C(C)C)c3nc(-c4c(O)cccc4F)c(F)cc23)[C@@H](C)C1 [Sotorasib] | – | – | – | – | – | – | – | – | – | – | – | Loewe Synergy Score > 10 ([6]; NCI-H358, NCI-H1373, NCI-H2122, MiaPACA2, NCI-H2030): 4/5 cell lines |
